These results are taken from patent US20070292351A1, “Assay for efficacy of histone deacetylase inhibitors” (Methylgene, Inc., priority 2006, published 2007).

The subject of test [1] is human colon cancer HCT15 cells. In words: RT-PCR of MT3 transcription in HCT15 cells. The format is cell-based. Conditions: 16 hours, real-time RT-PCR normalized against beta-actin (FIG. 1). The procedure: FIG. 1. […] HCT15 cells were treated with HDAC inhibitors or indicated compounds for 16 hours before total RNAs are isolated. RNA levels of MT3 were measured by real-time RT-PCR and are subsequently normalized against β-actin.
Colon cancer HCT15 cells were exposed to 1 μM MGCD0103 for various amounts of time, and MT3 RNA levels were monitored by conventional semi-quantitative RT-PCR. Maximal induction is achieved between 8 h and 24 h of exposure and maintained through 72 h.
RNA was extracted from 8×10^6 cells using the Qiagen RNeasy Mini kit (cat#74106, Qiagen, Missisauga Ont.) following the manufacturer's instructions. RT reaction was performed using the Expand Reverse Transcriptase kit from Roche (Cat#1 785 834 Roche Applied Biosciences, Laval, Que) with 1 μg total RNA together with 1 μl oligo(dT) primer (cat#y01212, Invitrogen-Canada, Burlington, Ont). cDNA was synthesized using an Eppendorf Mastercycler gradient PCR apparatus (Brinkmann Instruments Canada LTD., Mississauga, Ontario), using a two cycle protocol. For the 1st cycle reaction mixture (0.5 μl H2O, 4 μl of 5× Buffer, 2 μl DTT, 2 ul of 10 mM dNTPs, 0.5 μl RNAsin (cat#N211B, Promega, Fisher Scientific, Whitby, Ont.) and […] of the Expand Reverse Transcriptase (Cat#1785834, Roche, Laval, Quebec)) was incubated at 65° C. for 10 minutes and then set on ice. A second cycle was performed at 42° C. for 1 hour. The resulting cDNA products were kept at 4° C. until used.
One ul of the resulting cDNA was used for every amplification reaction with 18.9 ul H2O, 1.25 ul of 10 mM dNTPs, 0.5 ul of each primer pair, 2.5 ul of 10× Buffer. The PCR reaction was carried out in an Eppendorf Mastercycler gradient. The sequences of the primers used for the amplification of selected biomarkers, as well as the details of the PCR reaction cycles are featured below. All buffers came from Expand Long Template PCR system (Roche, Laval, Quebec, Cat#11681842001). All primers were synthesized by Invitrogen (Invitrogen-Canada, Burlington, Ont.)
Analysis of transcripts was performed using STORM 860 (Amersham Biosciences, Baie d'Urfe, Qubec). Transcription of genes was normalized to transcription of actin, which was performed in the same RT-PCR reaction. The relative expression level of gense was normalized to baseline signals.
Quantitative PCR with SYBR Green I detection with Mastercycler® ep realplex (Eppendorf) was performed using LightCycler® 480 SYBR Green I Master (Roche Diagnostics). SYBR Green I assays were performed with 600 nM primers. All other reaction conditions were as described by the manufacturer. Amplification conditions were 5 minutes of initial denaturation at 95° C., followed by 40 cycles of each 15 seconds at 95° C., 15 seconds at 63.4° C., 20 seconds at 68° C., a melting curve from 60° C. to 95° C. was recorded. Quantification was performed using Pfaffl method, a relative quantification method in real-time PCR (Nucleic Acids Research 2001 29:2002-2007). Primers were synthesized by Invitrogen (Invitrogen-Canada, Burlington, Ont.).
(In general: Quantitative PCR measures a nucleic acid by following its amplification.)

In test [2] the test system is peripheral blast cells from AML patients. The settings on record: ex vivo treatment (Nebbioso et al. 2004); cited from earlier work.

For `Nc1ccccc1NC(=O)c1ccc(CNC(=O)OCc2cccnc2)cc1` [MS-275], the “Induction of transcription of MT3” value in test [1] is reported as “induced”. Further, the “level of pro-apoptotic TRAIL expression” value in test [2] is “increase”.

As to `O=C(CCCCCCC(=O)Nc1ccccc1)NO` [SAHA], the “Induction of transcription of MT3” value in test [1] was “induced”.
